{"source": "patent US7259146B2", "about": "“Neuroprotective peptides” (Ortho-McNeil Pharmaceutical, Inc., priority 2000, dated 2007)", "key": {"PC-12 cells": {"tested_on": "PC-12 cells", "test": "NGF withdrawal in PC-12 cells", "assay_type": "cell-based, rat", "conditions": "for protection against NGF withdrawal-induced cell death (in words): treated 24 hr before NGF removal, viable cells at 12, 24, 48, 72 hr", "experimental": "(§1) PC-12 cells (from a rat Pheochromocytoma) were cultured on poly-D-Lysine coated tissue culture plastic in DMEM containing 10% FBS and 5% Horse serum. To induce the neuronal phenotype in PC-12 cells, serum was removed and the cells were treated with NGF (50 ng/ml). Cells were grown for 7 days in the presence of the NGF then used for experiments.\nPC-12 cells were cultured as described above in a 96 well poly-d-lysine coated multi-well plate and treated with rhEPO (1 pm to 10 nm) for 24 hr prior to NGF withdrawal. On the day of the experiment the cells were washed with buffer 3 times to remove NGF and then cultured in fresh media without NGF. Immediately following NGF washout cells were counted (t=0) to determine the number of living cells. Cell viability was based on morphological characteristics including phase brightness, presence of axons, and absence of blebbing. Cell counts were performed at 12 hr, 24 hr, 48 hr and 72 hr and the number of viable cells were scored."}, "[1]": {"tested_on": "rat cerebral cortical cultures", "test": "Neurite outgrowth assay (MAP2-FITC immunofluorescence), cortical cultures", "assay_type": "cell-based", "from_the_text": "Dissociated hippocampal and cortical cell cultures were established from embryonic day 18 rat fetuses as previously described (Mattson et al., 1994). Briefly, fetuses were removed via cesarean section from pregnant moms (Sprague-Dawley) anesthetized with halothane according to the AVMA Panel on Euthanasia. Pups were decapitated and the brains were removed and placed in HEPES-buffered Hank's Balanced Salt solution (HBSS; Gibco). The hippocampi and cortices were dissected out and pooled according to tissue-type. Tissue was trypsinized for 15 min (1 mg/ml trypsin-HBSS; Worthington), rinsed with fresh HBSS, incubated in trypsin inhibitor (1 mg/ml; Sigma) for 5 min, rinsed again with fresh HBSS and then triturated in 1 ml fresh HBSS with a fire-polished glass pipette. Dissociated cells were seeded at 30,000 cells/well onto poly-D-lysine coated 96-well plates (Collaborative BioScience). Each well contained 100 μl of Eagle's Minimal Essential Media (MEM; Gibco) supplemented with 26 mM NaHCO3 (Sigma), 56 mM glucose (Sigma), 15 mM KCl (Sigma), 1 mM sodium pyruvate (Sigma), 1.1 mM L-glutamine (Sigma), 10% (v/v) heat-inactivated fetal bovine serum (Hyclone), and 0.001% gentamicin sulfate (Sigma) (pH 7.4). Cells were allowed to attach for 24 h in a humidified 37° C. 5% CO2 incubator before experimental treatment. The culture media was aspirated and exchanged with fresh media every three days.\nTwenty-four hours after plating, cultures were treated with vehicle (PBS+0.1% BSA), 100 ng of various growth factors (brain derived neurotrophic factor (BDNF; Promega), glial-derived neurotrophic factor (GDNF; Promega), nerve growth factor (NGF; Boehringer Mannheim), basic fibroblast growth factor (bFGF; Boehringer Mannheim), insulin-like growth factor-1 (IGF-1; Boehringer Mannheim), neurotrophin-3 (NT3; Calbiochem), neurotrophin-4 (NT4; Calbiochem), ciliary neurotrophic factor (CNTF; Calbiochem), epidermal growth factor (EGF; Calbiochem), vascular endothelial growth factor (VEGF; Calbiochem)), or rhEPO (prepared same as above; 10 fM-10 nM)). Each treatment condition was run in quadruplicate or octuplicate. On the third day in culture, the media was aspirated off and replaced with fresh media and test compound. At one week in culture, the cells were fixed with 10% phosphate-buffered formalin for 15 min, then rinsed with DPBS (Sigma) and placed in blocking serum for 30 min (horse serum; 1:50 dilution in DPBS; Vector Labs). Cultures were rinsed again with DPBS and then incubated in primary antibody for 2 hr (microtubule-associated protein-2 (MAP-2) is a selective marker for dendritic processes; anti-mouse monoclonal (Chemicon); 1:1000 dilution of MAP-2 in antibody diluent (Zymed)). Negative control wells were incubated in antibody diluent alone. Background signal was determined by blank wells (cell-free) incubated with or without antibody. Cultures were rinsed again with DPBS and then placed in fluorescein for 1 hr (FITC; anti-mouse IgG; rat adsorbed; 1:50 dilution in DPBS; Vector Labs). Cultures were rinsed a final time with DPBS and then the plates were read on a Cytofluor 4000 fluorescence plate reader. Neurite outgrowth was expressed as percent change from control (vehicle; mean fluorescence±SD).\nDissociated hippocampal and cortical cell cultures were established from embryonic day 18 rat fetuses as previously described (Mattson et al., 1994). Briefly, fetuses were removed via cesarean section from pregnant moms (Sprague-Dawley) anesthetized with halothane according to the AVMA Panel on Euthanasia. Pups were decapitated and the brains were removed and placed in HEPES-buffered Hank's Balanced Salt solution (HBSS; Gibco). The hippocampi and cortices were dissected out and pooled according to tissue-type. […]"}, "bak": {"tested_on": "bak", "test": "EPO induced gene expression in PC12 cells (quantitative RT-PCR)", "assay_type": "cell-based, rat", "conditions": "PC-12 cells", "experimental": "as §1\n(§2) PC-12 cells were cultured as described in Example 1 in a 10 cm poly-D-lysine coated tissue culture dish. Cells were incubated in the presence of 1 U/ml of EPO for 24 hr. Total RNAn was then isolated using a Qiagen RNAeasy mini prep kit and used for RT-PCR.\n(§3) Real time reverse transcription and PCR were performed in a single reaction using a light cycler and an RNA amplification kit from Roche Molecular Biochemicals. RNA was quantitated and added in equal amounts to reaction mix that includes the dsDNA specific dye SYBR green I. Specific PCR reaction products are quantitated by detecting the amount of fluorescence in the reaction at each PCR cycle. Final analysis was performed using the data analysis software included with the light cycler instrument."}, "bclXL": {"tested_on": "bclXL", "test": "EPO induced gene expression in PC12 cells (quantitative RT-PCR)", "assay_type": "cell-based, rat", "conditions": "PC-12 cells", "experimental": "as §1, §2, §3"}, "[2]": {"test": "Plasma determinations (EPO ELISA) in ischemia studies", "assay_type": "in vivo, rat", "from_the_text": "Plasma Determinations: Blood samples were collected from each rat via the orbital sinus at the time of sacrifice. Plasma was separated out, frozen and analyzed by EPO ELISA for determination of plasma concentration (U/ml)."}, "[3]": {"conditions": "cited from earlier work"}, "[4]": {"conditions": "1 nm EPO for 24 hr (FIG. 3 legend)"}}, "note": "“Also recorded” adds a separate entry of the source.", "data": [{"substance": "EPO: purified, recombinant human EPO (rhEPO), formulated and distributed under the trademarks EPREX, ERYPO or PROCRIT", "values": [{"measurement": "optimum / peak concentration for the neuroprotective effect", "setting": "PC-12 cells; growth factor withdrawal", "result": 10, "unit": "pm"}, {"measurement": "neuroprotective effect at 1 nm", "setting": "PC-12 cells; growth factor withdrawal, 1 nm", "result": "no significant effect"}, {"measurement": "dose response curve for the neuroprotective effect", "setting": "PC-12 cells; growth factor withdrawal, protection decreasing above 10 pm", "result": "bi-phasic"}, {"measurement": "protection against NGF withdrawal-induced cell death (in words)", "setting": "PC-12 cells", "result": "significant decrease in cell death; also recorded: increased the number of viable cells at each time point"}, {"measurement": "protection against NGF withdrawal-induced cell death (in words)", "setting": "PC-12 cells; listed as rhEPO", "result": "protects rat PC12 cells against NGF withdrawal-induced cell death"}, {"measurement": "neurite outgrowth (in words)", "setting": "[1]", "result": "significant increase in neurite outgrowth; also recorded: promotes neurite outgrowth"}, {"measurement": "concentration of maximal neurite outgrowth promoting activity", "setting": "[1]; concentration dependent", "result": "maximal activity observed at pM levels"}, {"measurement": "ability to increase neurite outgrowth compared to known growth factors", "setting": "[1]; growth factors 100 ng", "result": "greater than or equal to that of known growth factors; also recorded: superior in inducing neurite outgrowth relative to the majority of known growth factors"}, {"measurement": "neurite outgrowth response over control", "setting": "[1]; rhEPO 10 fM-10 nM, one week in culture", "result": "15–29%"}, {"measurement": "decrease in the expression of the pro-apoptotic Bak", "setting": "bak; [4]", "result": "greater than 5 fold"}, {"measurement": "decrease in the expression of the pro-apoptotic gene, bak", "setting": "bak; EPO 1 U/ml for 24 hr", "result": 5, "unit": "fold"}, {"measurement": "increase in the expression of the anti-apoptotic gene, bclXL", "setting": "bclXL; [4]", "result": 6, "unit": "fold"}, {"measurement": "increase in the expression of the anti-apoptotic gene, bclXL", "setting": "bclXL; EPO 1 U/ml for 24 hr", "result": 6, "unit": "fold"}, {"measurement": "plasma concentrations (terminal)", "setting": "[2]; Study I, continuous infusion", "result": "correlated with the protective effect"}, {"measurement": "plasma concentrations (terminal)", "setting": "[2]; Study II, single iv bolus 1000, 2500 or 5000 U/kg", "result": "low"}, {"measurement": "tolerability in studies conducted to date", "setting": "[3]; patients", "result": "well tolerated"}, {"measurement": "antibody titers against Epoetin alfa", "setting": "[3]; subjects treated for up to 2 years", "result": "No antibody titers"}]}]}
